The structures appear in SMILES notation. Activity calls are given as the source filed them. The calls are words filed in the database; no cut-off is given here. Some results are limits rather than exact numbers.

Data set [1] in a line: Photophysical property of the compound assessed as fluorescence quantum yield by UV-vis spectrophotometric analysis. The format is physicochemical.
Data set [2] is described as follows: Photophysical property of the compound assessed as singlet oxygen quantum yield by UV-vis spectrophotometric analysis. In kind it is physicochemical.
A short description of data set [3]: Induction of singlet oxygen quantum yield under 418 nm light irradiation by DPBF based assay. In kind it is functional.
In data set [4] the test system is Staphylococcus aureus. As to the kind of experiment: Antibacterial activity against Staphylococcus aureus assessed as bacterial growth inhibition preincubated with compound for 15 mins followed by light irradiated with 730 nm, 40 J/cm2 and measured after 24 hrs by broth microdilution method. In kind it is functional. Conditions: light or radiation study, 24.25 h, time 1455 min. In general terms: Broth dilution looks for growth in wells or tubes with falling amounts of substance.

For data set [5], the system named is Staphylococcus aureus. The data set can be described thus: Antibacterial activity against Staphylococcus aureus assessed as bacterial growth inhibition measured after 24 hrs by broth microdilution method. In kind it is functional.
In data set [6] the test system is Escherichia coli. As to the kind of experiment: Antibacterial activity against Escherichia coli assessed as bacterial growth inhibition measured after 24 hrs by broth microdilution method. In kind it is functional.
Data set [7] has as its system Escherichia coli. The data set can be described thus: Antibacterial activity against Escherichia coli assessed as bacterial growth inhibition preincubated with compound for 15 mins followed by light irradiated with 730 nm, 40 J/cm2 and measured after 24 hrs by broth microdilution method. In kind it is functional. To be noted: light or radiation study, 24.25 h, time 1455 min.

The subject of data set [8] is Candida albicans. The data set can be described thus: Antifungal activity against Candida albicans assessed as fungal growth inhibition measured after 24 hrs by broth microdilution method. The format is functional.
Data set [9] deals with Candida albicans. As to the kind of experiment: Antifungal activity against Candida albicans assessed as fungal growth inhibition preincubated with compound for 15 mins followed by light irradiated with 730 nm, 40 J/cm2 and measured after 24 hrs by broth microdilution method. To be noted: light or radiation study, 24.25 h, time 1455 min. In kind it is functional.

For the compound `CC[N+](C)(CC)CCCCCOc1ccc(-c2c3nc(c(-c4ccc(OCCCCC[N+](C)(CC)CC)cc4)c4[nH]c(c(-c5ccc(OCCCCC[N+](C)(CC)CC)cc5)c5nc(c(-c6ccc(OCCCCC[N+](C)(CC)CC)cc6)c6[nH]c2c2cc7ccccc7cc62)-c2cc6ccccc6cc2-5)c2cc5ccccc5cc42)-c2cc4ccccc4cc2-3)cc1.[Br-].[Br-].[Br-].[Br-]`, the Activity in data set [1] is reported as 0.07; in data set [2], 0.67. The outcome in [3] was Active. The MIC with Staphylococcus aureus [4] is 16 µM; in the data set with Staphylococcus aureus [5] it was 32 µM; in the data set with Escherichia coli [6], above 64 µM; in the data set on Escherichia coli [7], above 64 µM; in the data set with Candida albicans [8], 64 µM; in the data set with Candida albicans [9] it was 64 µM.

As for `C[N+](C)(C)CCCCCCOc1ccc(-c2c3nc(c(-c4ccc(OCCCCCC[N+](C)(C)C)cc4)c4[nH]c(c(-c5ccc(OCCCCCC[N+](C)(C)C)cc5)c5nc(c(-c6ccc(OCCCCCC[N+](C)(C)C)cc6)c6[nH]c2c2cc7ccccc7cc62)-c2cc6ccccc6cc2-5)c2cc5ccccc5cc42)-c2cc4ccccc4cc2-3)cc1.[Br-].[Br-].[Br-].[Br-]`, the Activity in data set [1] turned out to be 0.07; in data set [2] it was 0.48. Moreover, the outcome in data set [3] was Active. For the same compound, the MIC in the data set with Staphylococcus aureus [4] was 16 µM; with Staphylococcus aureus [5], 64 µM; in the data set with Escherichia coli [6], above 64 µM; with Escherichia coli [7], above 64 µM; in the data set on Candida albicans [8] it was 64 µM; in the data set with Candida albicans [9] it was 64 µM.

On to `CC[N+](C)(CC)CCCCOc1ccc(-c2c3nc(c(-c4ccc(OCCCC[N+](C)(CC)CC)cc4)c4[nH]c(c(-c5ccc(OCCCC[N+](C)(CC)CC)cc5)c5nc(c(-c6ccc(OCCCC[N+](C)(CC)CC)cc6)c6[nH]c2c2cc7ccccc7cc62)-c2cc6ccccc6cc2-5)c2cc5ccccc5cc42)-c2cc4ccccc4cc2-3)cc1.[Br-].[Br-].[Br-].[Br-]`, for which the Activity in data set [1] is 0.07; in [2], 0.56. The outcome in [3] was Active. For the same compound, the MIC in the data set on Staphylococcus aureus [4] was 8 µM; with Staphylococcus aureus [5] it was 16 µM; in the data set with Escherichia coli [6], above 64 µM; in the data set on Escherichia coli [7], above 64 µM; in the data set on Candida albicans [8], 64 µM; with Candida albicans [9], 64 µM.

As for `C[N+](C)(C)CCCCOc1ccc(-c2c3nc(c(-c4ccc(OCCCC[N+](C)(C)C)cc4)c4[nH]c(c(-c5ccc(OCCCC[N+](C)(C)C)cc5)c5nc(c(-c6ccc(OCCCC[N+](C)(C)C)cc6)c6[nH]c2c2cc7ccccc7cc62)-c2cc6ccccc6cc2-5)c2cc5ccccc5cc42)-c2cc4ccccc4cc2-3)cc1.[Br-].[Br-].[Br-].[Br-]`, the Activity in data set [1] came to 0.08; in data set [2], 0.41. Besides, the result in data set [3] was Active. In addition, the minimum inhibitory concentration (MIC) in the data set with Staphylococcus aureus [4] is 16 µM; with Staphylococcus aureus [5], 32 µM; in the data set on Escherichia coli [6] it was above 64 µM; in the data set on Escherichia coli [7] it was above 64 µM; in the data set on Candida albicans [8] it was 64 µM; in the data set on Candida albicans [9], 64 µM.

Turning to `[Br-].[Br-].[Br-].[Br-].c1cc[n+](CCCCOc2ccc(-c3c4nc(c(-c5ccc(OCCCC[n+]6ccccc6)cc5)c5[nH]c(c(-c6ccc(OCCCC[n+]7ccccc7)cc6)c6nc(c(-c7ccc(OCCCC[n+]8ccccc8)cc7)c7[nH]c3c3cc8ccccc8cc73)-c3cc7ccccc7cc3-6)c3cc6ccccc6cc53)-c3cc5ccccc5cc3-4)cc2)cc1`, the Activity is given as 0.08 in [1] and 0.45 in data set [2]. Moreover, the result in data set [3] was Active. The MIC in the data set with Staphylococcus aureus [4] is 32 µM; with Staphylococcus aureus [5], 64 µM; in the data set with Escherichia coli [6] it was above 64 µM; with Escherichia coli [7] it was above 64 µM; with Candida albicans [8], 64 µM; in the data set on Candida albicans [9] it was 32 µM.

Turning to `[Br-].[Br-].[Br-].[Br-].c1cc[n+](CCCCCCOc2ccc(-c3c4nc(c(-c5ccc(OCCCCCC[n+]6ccccc6)cc5)c5[nH]c(c(-c6ccc(OCCCCCC[n+]7ccccc7)cc6)c6nc(c(-c7ccc(OCCCCCC[n+]8ccccc8)cc7)c7[nH]c3c3cc8ccccc8cc73)-c3cc7ccccc7cc3-6)c3cc6ccccc6cc53)-c3cc5ccccc5cc3-4)cc2)cc1`, the Activity in data set [1] is reported as 0.07; in [2], 0.52. The result in [3] was Active. For the same compound, the MIC is 64 µM in the data set on Staphylococcus aureus [4]; 64 µM with Staphylococcus aureus [5]; above 64 µM with Escherichia coli [6]; above 64 µM in the data set with Escherichia coli [7]; 64 µM in the data set on Candida albicans [8]; 64 µM in the data set on Candida albicans [9].

Regarding `[Br-].[Br-].[Br-].[Br-].c1cc[n+](CCCCCOc2ccc(-c3c4nc(c(-c5ccc(OCCCCC[n+]6ccccc6)cc5)c5[nH]c(c(-c6ccc(OCCCCC[n+]7ccccc7)cc6)c6nc(c(-c7ccc(OCCCCC[n+]8ccccc8)cc7)c7[nH]c3c3cc8ccccc8cc73)-c3cc7ccccc7cc3-6)c3cc6ccccc6cc53)-c3cc5ccccc5cc3-4)cc2)cc1`, the Activity in [1] amounted to 0.08; in data set [2] it was 0.5. Moreover, the outcome in data set [3] was Active. The MIC was 32 µM in the data set with Staphylococcus aureus [4]; 64 µM in the data set on Staphylococcus aureus [5]; above 64 µM with Escherichia coli [6]; above 64 µM in the data set with Escherichia coli [7]; 64 µM in the data set on Candida albicans [8]; 32 µM in the data set with Candida albicans [9].

Consider `CC[N+](C)(CC)CCCCCCOc1ccc(-c2c3nc(c(-c4ccc(OCCCCCC[N+](C)(CC)CC)cc4)c4[nH]c(c(-c5ccc(OCCCCCC[N+](C)(CC)CC)cc5)c5nc(c(-c6ccc(OCCCCCC[N+](C)(CC)CC)cc6)c6[nH]c2c2cc7ccccc7cc62)-c2cc6ccccc6cc2-5)c2cc5ccccc5cc42)-c2cc4ccccc4cc2-3)cc1.[Br-].[Br-].[Br-].[Br-]`, for which the Activity was 0.07 in data set [1] and 0.68 in [2]. Moreover, in data set [3], the result was Active. Also, the MIC in the data set on Staphylococcus aureus [4] was 64 µM; with Staphylococcus aureus [5], 64 µM; in the data set on Escherichia coli [6] it was above 64 µM; with Escherichia coli [7], above 64 µM; with Candida albicans [8], 64 µM; in the data set with Candida albicans [9], 64 µM.

Turning to `C[N+](C)(C)CCCCCOc1ccc(-c2c3nc(c(-c4ccc(OCCCCC[N+](C)(C)C)cc4)c4[nH]c(c(-c5ccc(OCCCCC[N+](C)(C)C)cc5)c5nc(c(-c6ccc(OCCCCC[N+](C)(C)C)cc6)c6[nH]c2c2cc7ccccc7cc62)-c2cc6ccccc6cc2-5)c2cc5ccccc5cc42)-c2cc4ccccc4cc2-3)cc1.[Br-].[Br-].[Br-].[Br-]`, the Activity in [1] came to 0.07; in [2] it was 0.47. For the same compound, the result in [3] was Active. For the same compound, the MIC in the data set with Staphylococcus aureus [4] was 16 µM; in the data set with Staphylococcus aureus [5], 64 µM; with Escherichia coli [6], above 64 µM; with Escherichia coli [7], above 64 µM; with Candida albicans [8], 64 µM; in the data set on Candida albicans [9], 64 µM.

As a reminder, the MIC is the lowest concentration found to suppress growth.
